The target in one test is T1, FLT3(K663Q) (Homo sapiens, UniProt P36888, K663Q).
T1 sequence (P36888 27-993 K663Q): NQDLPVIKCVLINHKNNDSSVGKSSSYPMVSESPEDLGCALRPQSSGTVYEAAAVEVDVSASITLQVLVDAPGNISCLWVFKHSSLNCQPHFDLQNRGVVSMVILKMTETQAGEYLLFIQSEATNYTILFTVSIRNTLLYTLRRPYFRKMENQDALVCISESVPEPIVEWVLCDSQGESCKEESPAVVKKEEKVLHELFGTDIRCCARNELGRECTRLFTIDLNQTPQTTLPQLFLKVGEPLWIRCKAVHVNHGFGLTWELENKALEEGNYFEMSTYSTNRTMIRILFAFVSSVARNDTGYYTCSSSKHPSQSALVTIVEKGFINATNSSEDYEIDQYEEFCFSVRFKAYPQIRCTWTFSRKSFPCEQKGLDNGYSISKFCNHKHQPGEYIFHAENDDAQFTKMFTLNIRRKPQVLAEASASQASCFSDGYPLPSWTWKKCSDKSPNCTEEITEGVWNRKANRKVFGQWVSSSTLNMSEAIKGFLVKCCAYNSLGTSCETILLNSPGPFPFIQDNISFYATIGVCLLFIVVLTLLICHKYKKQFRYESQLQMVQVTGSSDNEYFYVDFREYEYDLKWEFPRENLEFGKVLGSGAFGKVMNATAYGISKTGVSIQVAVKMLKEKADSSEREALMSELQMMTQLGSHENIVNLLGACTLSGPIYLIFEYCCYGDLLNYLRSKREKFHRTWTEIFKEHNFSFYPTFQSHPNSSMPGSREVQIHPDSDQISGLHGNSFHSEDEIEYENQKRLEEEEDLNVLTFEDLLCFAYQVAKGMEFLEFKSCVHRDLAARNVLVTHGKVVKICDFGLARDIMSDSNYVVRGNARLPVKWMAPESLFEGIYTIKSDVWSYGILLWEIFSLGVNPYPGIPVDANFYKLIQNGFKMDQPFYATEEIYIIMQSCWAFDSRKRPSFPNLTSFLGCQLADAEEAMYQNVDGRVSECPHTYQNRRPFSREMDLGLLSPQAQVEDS
Type of test: binding. The method, then: (§1) The assay was carried out using KINOMEscan™ technology. The assay compounds were stored in 100% DMSO. The assay was carried out by means of 3-fold dilution and 11-point fitting. All compounds used for Kd determination were dispersed by ultrasound, then directly diluted and tested. All reactions were carried out in a 384-well polypropylene plate. Each portion has a final volume of 0.02 ml. The plate was incubated with shaking at room temperature for 1 hour, and then processed. The kinase concentration in the eluent was finally determined by qPCR method. Kd was obtained by fitting.

For another test, the target named is T2, FLT3(D835H) (Homo sapiens, UniProt P36888, D835H).
T2 sequence (P36888 27-993 D835H): T1 sequence (P36888 27-993 K663Q) with Q637K, D809H
In kind it is binding. The method, then:
as §1

Changes are numbered by the printed parent chain.

From US20230141887A1, “CRYSTAL FORM OF DIAZASPIROPYRAN COMPOUND” (MEDSHINE DISCOVERY INC., priority 2020, published 2023) come the findings set out here.

What is called Kd is the constant that tells how readily two partners part at equilibrium. Higher therefore signals a looser complex. With `CCc1nc(C(N)=O)c(Nc2ccc(N3CCC4(CCN(C)CC4)CC3)c(C)c2)nc1NC1CCOCC1.O=C(O)C(F)(F)F`, the Kd came out at 10 nM at FLT3(K663Q) (FLT3(K663Q)) and 2.3 nM at FLT3(D835H). Moreover, the “activity higher than that of the known compound B” value on FLT3(K663Q) (FLT3 (K663Q), ratio of Kd versus compound B) is listed as 5.9 times.
